Where a name gives a salt, the structure may show the parent alone. Read-outs that look alike come from different tables or passages of the source.
How the values were obtained:
Plasmodium falciparum = assay: In vitro antiprotozoal activity against Plasmodium falciparum; type: cell-based
Experimental: (§1) In vitro antiprotozoal activities, see Ismail, M. A., et al., J. Med. Chem. 46, 4761-4769 (2003), and cytotoxicity were measured following established protocols, see Balz, T., et al., EMBO J., 4, 1273-1277 (1985); Räz. B., et al., Acta Trop., 68:139-147 (1997); and Sperandeo, N. R. et al., Chem. Biochem., 4, 69-73 (2003). […] Other positive controls employed were melarsoprol (against T. brucei), chloroquine, and artemisinin (against P. falciparum), and podophyllotoxin (against VERO cells).

[1] = Cytotoxicity to VERO cells; type: cell-based, African green monkey (Cercopithecus Aethiops); details: African green monkey (Cercopithecus aethiops)
Experimental: as §1

[2] = test system: Trypanosoma brucei brucei; assay: In vitro antiprotozoal activity against Trypanosoma brucei brucei; type: cell-based
Experimental: as §1

VERO cells = assay: Cytotoxicity to VERO cells; type: cell-based, African green monkey (Cercopithecus Aethiops)
Experimental: as §1

[3] = Plasmodium falciparum, Table 1, read-out: IC50 (μM) Plasmodium falciparum
[4] = IC50 (μM) Cytotoxicity VERO cells
[5] = Trypanosoma brucei, Table 1, read-out: IC50 (μM) Trypanosoma brucei brucei
[6] = Trypanosoma brucei, read-out: IC50 values against T. brucei brucei
[7] = Table 1, read-out: IC50 (μM) Trypanosoma brucei brucei
[8] = Table 1, read-out: IC50 (μM) Plasmodium falciparum
[9] = Plasmodium falciparum, read-out: antiplasmodial IC50 values (P. falciparum)
[10] = Table 1, read-out: IC50 (μM) Cytotoxicity VERO cells

| melting point | IC50 (Plasmodium falciparum; [3]) | IC50 [2, 5] | IC50 (Plasmodium falciparum; [9]) | Compound | IC50 [1, 4] | further results |
| --- | --- | --- | --- | --- | --- | --- |
| 287 to 292 °C |  |  |  | N=C(N)c1ccc(-c2cc(-c3ccccc3)on2)cc1 (as salt: hydrochloride) [Compound 2, 3-(4-Amidinophenyl)-5-phenylisoxazole] |  |  |
|  | 0.0067 µM |  |  | C[C@@H]1CC[C@H]2[C@@H](C)C(=O)O[C@@H]3O[C@@]4(C)CC[C@@H]1[C@]32OO4 [Artemisinin, reference compound] |  |  |
|  |  |  |  | CCN(CC)CCCC(C)Nc1ccnc2cc(Cl)ccc12 (stereo not drawn) [Chloroquine, reference compound] |  | IC50 (Plasmodium falciparum; Plasmodium falciparum, read-out: IC50 (μM) Plasmodium falciparum): 0.104 µM |
| 262 to 265 °C | 3.3 µM | 1.72 µM |  | Cl.N=C(N)c1ccc(-c2cc(-c3ccccc3)no2)cc1 [Compound 1, 5-(4-Amidinophenyl)-3-phenylisoxazole hydrochloride] | 19.1 µM |  |
|  | 3.3 µM | 1.12 µM |  | N=C(N)c1ccc(-c2cc(-c3ccccc3)on2)cc1 [Compound 2, 3-(4-Amidinophenyl)-5-phenylisoxazole] | 18.5 µM |  |
|  | 0.0226 µM | 0.0051 µM |  | N=C(N)c1ccc(-c2cc(-c3ccc(C(=N)N)cc3)on2)cc1 [Compound 3, 3,5-Bis(4-amidinophenyl)isoxazole dihydrochloride] | 2.13 µM | IC50 [2, 6]: 0.0035 to 0.009 µM; IC50 ([2]; dihydrochloride, read-out: IC50 values against T. brucei brucei): 0.0051 µM |
|  |  |  |  | c1cc(-c2cc(-c3ccc(C4=NCCN4)cc3)on2)ccc1C1=NCCN1 [Compound 5, 3,5-Bis[4-(2-imidazolinyl)phenyl]isoxazole dihydrochloride] |  | IC50 (VERO cells): 1.81 µM; IC50 [2, 7]: 0.0872 µM; IC50 (Plasmodium falciparum; [8]): 0.0041 µM |
| > 350 °C (dec.) | 0.0149 µM | 0.0139 µM | 0.008 to 0.03 µM | Cl.Cl.N=C(N)c1ccc(-c2cc(-c3ccc(C(=N)N)cc3[N+](=O)[O-])on2)cc1 [Compound 6, 5-(4-Amidino-2-nitrophenyl)-3-(4-amidinophenyl)isoxazole dihydrochloride] | 15.8 µM |  |
| > 350 °C (dec.) | 0.0079 µM | 0.0155 µM | < 0.008 µM | Cl.Cl.N=C(N)c1ccc(-c2cc(-c3ccc(C(=N)N)cc3Cl)on2)cc1 [Compound 7, 5-(4-Amidino-2-chlorophenyl)-3-(4-amidinophenyl)isoxazole dihydrochloride] | 41 µM |  |
| 350 °C (dec.) | 0.0401 µM | 0.0324 µM |  | Cl.Cl.N=C(N)c1ccc(-c2cc(-c3ccc(C(=N)N)cc3[N+](=O)[O-])no2)cc1 [Compound 9, 3-(4-Amidino-2-nitrophenyl)-5-(4-amidinophenyl)isoxazole dihydrochloride] | 22.2 µM |  |
|  | 0.0555 µM | 0.0232 µM |  | N=C(N)c1ccc(-c2cc(-c3ccc(C(=N)N)cc3Cl)no2)cc1 [Compound 10, 3-(4-Amidino-2-chlorophenyl)-5-(4-amidinophenyl)isoxazole dihydrochloride] | 5.69 µM |  |
|  | 0.0578 µM | 0.0063 µM | 0.0578 µM | N=C(N)c1ccc(-c2cc(-c3cccc(C(=N)N)c3)no2)cc1 [Compound 13, 3-(3-Amidinophenyl)-5-(4-amidinophenyl)isoxazole dihydrochloride] | 24.1 µM | IC50 [2, 6]: 0.0035 to 0.009 µM |
|  |  |  |  | c1cc(C2=NCCN2)cc(-c2cc(-c3ccc(C4=NCCN4)cc3)on2)c1 [Compound 15, 3-[3-(2-Imidazolinyl)phenyl]-5-[4-(2-imidazolinyl)phenyl]isoxazole dihydrochloride] |  | IC50 (VERO cells; [10]): 65 µM; IC50 [2, 7]: 1.55 µM; IC50 (Plasmodium falciparum; [8]): 0.0512 µM |
| 225 °C | 0.0259 µM | 0.009 µM | 0.008 to 0.03 µM | Cl.Cl.N=C(N)c1cccc(-c2cc(-c3ccc(C(=N)N)cc3[N+](=O)[O-])on2)c1 [Compound 16, 5-(4-Amidino-2-nitrophenyl)-3-(3-amidinophenyl)isoxazole dihydrochloride] | 48 µM | IC50 [2, 6]: 0.0035 to 0.009 µM |
| 242 to 245 °C | 0.0187 µM | 0.0063 µM | 0.008 to 0.03 µM | Cl.Cl.N=C(N)c1cccc(-c2cc(-c3ccc(C(=N)N)cc3Cl)on2)c1 [Compound 17, 5-(4-Amidino-2-chlorophenyl)-3-(3-amidinophenyl)isoxazole dihydrochloride] | 82.7 µM | IC50 [2, 6]: 0.0035 to 0.009 µM |
| 348 °C | 0.0071 µM | 0.0212 µM | < 0.008 µM | Cl.Cl.N=C(N)c1ccc(-c2cc(-c3cc(C(=N)N)ccc3Cl)no2)cc1 [Compound 20, 3-(5-Amidino-2-chlorophenyl)-5-(4-amidinophenyl)isoxazole dihydrochloride] | 5.67 µM |  |
| 336 to 338 °C | 0.0025 µM | 0.0035 µM |  | Cl.Cl.N=C(N)c1ccc(-c2cc(-c3cccc(C(=N)N)c3)on2)cc1 [Compound 22, 3-(4-Amidinophenyl)-5-(3-amidinophenyl)isoxazole di hydrochloride] | 31.2 µM | IC50 [2, 6]: 0.0035 to 0.009 µM |
|  |  |  |  | c1cc(C2=NCCN2)cc(-c2cc(-c3ccc(C4=NCCN4)cc3)no2)c1 [Compound 24, 3-[4-(2-Imidazolinyl)phenyl]-5-[3-(2-imidazolinyl)phenyl]isoxazole dihydrochloride] |  | IC50 (VERO cells; [10]): 30.2 µM; IC50 [2, 7]: 0.974 µM; IC50 (Plasmodium falciparum; [8]): 0.077 µM |
| 356 to 358 °C (dec.) | 0.0035 µM | 0.0209 µM | < 0.008 µM | Cl.Cl.N=C(N)c1ccc(-c2cc(-c3cc(C(=N)N)ccc3Cl)on2)cc1 [Compound 25, 5-(5-Amidino-2-chlorophenyl)-3-(4-amidinophenyl)isoxazole dihydrochloride] | 71.4 µM |  |
| 240 to 242 °C | 0.0116 µM | 0.0043 µM | 0.008 to 0.03 µM | COc1ccc(C(=N)N)cc1-c1cc(-c2ccc(C(=N)N)cc2)no1.Cl.Cl [Compound 26, 5-(5-Amidino-2-methoxyphenyl)-3-(4-amidinophenyl)isoxazole dihydrochloride] | 52.8 µM | IC50 [2, 6]: 0.0035 to 0.009 µM |
| 210 °C (dec.) | 0.0141 µM | 0.0116 µM | 0.008 to 0.03 µM | Cl.Cl.N=C(N)c1cccc(-c2cc(-c3ccc(C(=N)N)cc3Cl)no2)c1 [Compound 28, 3-(4-Amidino-2-chlorophenyl)-5-(3-amidinophenyl)isoxazole dihydrochloride] | 87.4 µM |  |
|  |  |  |  | c1cc(C2=NCCN2)cc(-c2cc(-c3cccc(C4=NCCN4)c3)on2)c1 [Compound 34, 3,5-Bis[3-(2-imidazolinyl)phenyl]isoxazole dihydrochloride] |  | IC50 (VERO cells; [10]): 26.2 µM; IC50 [2, 7]: 18.5 µM; IC50 (Plasmodium falciparum; [8]): 0.227 µM |
| 222 °C (dec.) | 0.334 µM | 1.63 µM |  | Cl.Cl.N=C(N)c1cccc(-c2cc(-c3cc(C(=N)N)ccc3[N+](=O)[O-])on2)c1 [Compound 35, 5-(5-Amidino-2-nitrophenyl)-3-(3-amidinophenyl)isoxazole dihydrochloride] | 9.8 µM |  |
|  | 0.0306 µM | 0.0463 µM |  | N=C(N)c1cccc(-c2cc(-c3cc(C(=N)N)ccc3Cl)no2)c1 [Compound 39, 3-(5-Amidino-2-chlorophenyl)-5-(3-amidinophenyl)isoxazole dihydrochloride] | 55.5 µM |  |
| 210 °C (dec.) | 0.0174 µM | 0.027 µM | 0.008 to 0.03 µM | COc1ccc(C(=N)N)cc1-c1cc(-c2cccc(C(=N)N)c2)on1.Cl.Cl [Compound 40, 3-(5-Amidino-2-methoxyphenyl)-5-(3-amidinophenyl)isoxazole dihydrochloride] | 215 µM |  |
| 240 °C (dec.) | 0.0211 µM | 0.0042 µM | 0.008 to 0.03 µM | COc1ccc(C(=N)N)cc1-c1cc(-c2cc(C(=N)N)ccc2OC)on1.Cl.Cl [Compound 41, 3,5-Bis(5-amidino-2-methoxyphenyl)isoxazole dihydrochloride] | 79.9 µM | IC50 [2, 6]: 0.0035 to 0.009 µM |
| 185 °C (dec.) | 0.0932 µM | 0.374 µM |  | COc1ccc(C(=N)NC(C)C)cc1-c1cc(-c2cc(C(=N)NC(C)C)ccc2OC)on1.Cl.Cl [Compound 42, 3,5-Bis[5-(N-isopropyl)amidino-2-methoxyphenyl]isoxazole dihydrochloride] | 21.7 µM |  |
|  |  |  |  | COc1ccc(C2=NCCN2)cc1-c1cc(-c2cc(C3=NCCN3)ccc2OC)on1 [Compound 43, 3,5-Bis[5-(2-imidazolinyl)-2-methoxyphenyl]isoxazole dihydrochloride] |  | IC50 (VERO cells): 164 µM; IC50 [2, 7]: 0.0448 µM; IC50 (Plasmodium falciparum; [8]): 0.0114 µM |
|  |  |  |  | Nc1nc(N)nc(Nc2ccc([As]3SCC(CO)S3)cc2)n1 (stereo not drawn) [Melarsoprol, reference compound] |  | IC50 ([2]; Trypanosoma brucei, read-out: IC50 (μM) Trypanosoma brucei brucei): 0.00637 µM |
|  |  |  |  | COc1cc([C@@H]2c3cc4c(cc3[C@H](O)[C@H]3COC(=O)[C@H]23)OCO4)cc(OC)c1OC [Podophyllotoxin, reference compound] |  | IC50 [1, 10]: 0.0186 µM |
